Holding throughout (assay type): cell-based
Experiment [1] relates to A375 cells (malignant melanoma). Briefly: Inhibition of cancer cell proliferation, A375 (CellTiterGlo, 72 hours). Particulars: Homo sapiens, A-375. Summed up: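 GI50 derived from % growth inhibition relative to untreated wells, after luminescence (CellTiterGlo, 10 min) was converted to cell counts using a standard curve. Compound given as 3-fold dilutions from a 2× 5,000 nM stock in serum-free DMEM; 3000 A375 cells/well, 72 h culture at 37 °C.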

Experiment [2] has as its system ERK1/2 phosphorylation of p90RSK in HT29 cells. Briefly: pRSK MSD Assay in HT29 cells. Particulars: Homo sapiens, HT-29, read-out: ERK1/ERK2 PRSK MSD HT29 EC50. The procedure, abridged:
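Phospho-RSK level, read by electrochemiluminescence on RSK-antibody-coated MSD plates with a phospho-RSK/Sulfo-tag detection pair, reports cellular ERK1/2 activity. HT29 cells, kept overnight in 0.1% FBS medium, were exposed to compound for 120 min at 37° C before lysis.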

Experiment [3] relates to HCT116 cells (colorectal carcinoma). Briefly: Inhibition of cancer cell proliferation, HCT116 (CellTiterGlo, 72 hours). Particulars: Homo sapiens, HCT-116. The procedure, abridged: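 3000 cells per well exposed to 3-fold serial compound dilutions from 5,000 nM (two-fold solution, stock level) for 72 hours at 37° C. CellTiterGlo luminescence converted to cell number via a standard curve; percent inhibition vs untreated wells, GI50 by curve fit.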

Where only a bound is given, the exact number is not on record here.

A word on the GI50: it is the concentration at which growth is held to half of that of the control. A high value points to less potent growth inhibition. As to `C=CC(=O)Nc1cc(OC)ccc1Nc1nc(Nc2cc(OC)nc(N3CCN(C)CC3)c2)ncc1C(F)(F)F` [Compound I-334, N-(5-methoxy-2-((2-((2-methoxy-6-(4-methylpiperazin-1-yl)pyridin-4-yl)amino)-5-(trifluoromethyl)pyrimidin-4-yl)amino)phenyl)acrylamide], the GI50 in experiment [1] and in experiment [3] was under 100 nM throughout. Besides, the EC50 in experiment [2] was under 100 nM.

`C=CC(=O)Nc1cc(C)ccc1Nc1nc(Nc2cc(N[C@H]3CC[C@@H](O)CC3)nc(OC)c2)ncc1C(F)(F)F` [Compound I-326, N-(2-((2-((2-((cis-4-hydroxycyclohexyl)amino)-6-methoxypyridin-4-yl)amino)-5-(trifluoromethyl)pyrimidin-4-yl)amino)-5-methylphenyl)acrylamide]: the GI50 in experiment [1] and in experiment [3] was under 100 nM in each case.

For the compound `C=CC(=O)Nc1cc(C)ccc1Nc1nc(Nc2cc(OC)ccc2C)ncc1C(F)(F)F` [Compound I-341, N-(2-((2-((5-methoxy-2-methylphenyl)amino)-5-(trifluoromethyl)pyrimidin-4-yl)amino)-5-methylphenyl)acrylamide], the EC50 in experiment [2] lay within 101 to 500 nM.

For the compound `C=CC(=O)Nc1ccccc1Nc1nc(Nc2cc(F)ccc2C)ncc1C(F)(F)F` [Compound I-285, N-(2-((2-((5-Fluoro-2-methylphenyl)amino)-5-(trifluoromethyl)pyrimidin-4-yl)amino)phenyl)acrylamide], in experiment [2], the EC50 was 101 to 500 nM.

As to `C=CC(=O)Nc1ccccc1Nc1nc(Nc2cc(NCCOC)nc(OC)c2)ncc1C(F)(F)F` [Compound I-286, N-(2-((2-((2-Methoxy-6-((2-methoxyethyl)amino)pyridin-4-yl)amino)-5-(trifluoromethyl)pyrimidin-4-yl)amino)phenyl)acrylamide], the GI50 in experiment [1] and in experiment [3] was under 100 nM each time. Further, the EC50 in experiment [2] was under 100 nM.

Take `C=CC(=O)Nc1ccccc1Nc1nc(Nc2cc(OC)nc(OC)c2)ncc1C(F)(F)F` [Compound I-95, N-(2-((2-((2,6-Dimethoxypyridin-4-yl)amino)-5-(trifluoromethyl)pyrimidin-4-yl)amino)phenyl)acrylamide]: the GI50 in experiment [1] and in experiment [3] was under 100 nM each time. Further, the EC50 in experiment [2] was under 100 nM.

As to `C=CC(=O)Nc1cc(C)ccc1Nc1nc(Nc2cc(OC)nc(N3CCOCC3)c2)ncc1C(F)(F)F` [Compound I-94, N-(2-((2-((2-Methoxy-6-morpholinopyridin-4-yl)amino)-5-(trifluoromethyl)pyrimidin-4-yl)amino)-5-methylphenyl)acrylamide], the GI50 in experiment [1] and in experiment [3] was under 100 nM each time. The EC50 in experiment [2] is under 100 nM.

In the case of `C=CC(=O)Nc1cc(C)ccc1Nc1nc(Nc2cc(C)nc(OC)c2)ncc1C(F)(F)F` [Compound I-295, N-(2-((2-((2-methoxy-6-methylpyridin-4-yl)amino)-5-(trifluoromethyl)pyrimidin-4-yl)amino)-5-methylphenyl)acrylamide], the EC50 in experiment [2] was under 100 nM.

As to `C=CC(=O)Nc1ccccc1Nc1nc(Nc2cc(OC)nc(N3CCS(=O)(=O)CC3)c2)ncc1C(F)(F)F` [Compound I-291, N-(2-((2-((2-(1,1-Dioxidothiomorpholino)-6-methoxypyridin-4-yl)amino)-5-(trifluoromethyl)pyrimidin-4-yl)amino)phenyl)acrylamide], the GI50 in experiment [1] and in experiment [3] was under 100 nM throughout. Besides, the EC50 in experiment [2] is under 100 nM.

For the compound `C=CC(=O)Nc1ccccc1Nc1nc(N[C@H]2CCN(C(=O)CO)C2)ncc1C(F)(F)F` [Compound I-57, (S)—N-(2-((2-((1-(2-Hydroxyacetyl)pyrrolidin-3-yl)amino)-5-(trifluoromethyl)pyrimidin-4-yl)amino)phenyl)acrylamide], the GI50 in experiment [1] and in experiment [3] was 101 to 500 nM in each case. In experiment [2], the EC50 was 101 to 500 nM.

In the case of `C=CC(=O)Nc1cc(OC)ccc1Nc1nc(Nc2cc(OC)ncc2C)ncc1Cl` [Compound I-242, N-(2-((5-chloro-2-((2-methoxy-5-methylpyridin-4-yl)amino)pyrimidin-4-yl)amino)-5-methoxyphenyl)acrylamide], the GI50 in experiment [1] was under 100 nM; in experiment [3], 101 to 500 nM. Also, the EC50 in experiment [2] was under 100 nM.

As for `C=CC(=O)Nc1ccccc1Nc1nc(Nc2cc(OC)cc(OC)c2)ncc1C(F)(F)F` [Compound I-338, N-(2-((2-((3,5-dimethoxyphenyl)amino)-5-(trifluoromethyl)pyrimidin-4-yl)amino)phenyl)acrylamide], the GI50 in experiment [1] and in experiment [3] was under 100 nM throughout. For the same compound, the EC50 in experiment [2] is under 100 nM.

As to `C=CC(=O)Nc1ccccc1Nc1nc(Nc2cc(OC)nc(N3CCCC3)c2)ncc1C(F)(F)F` [Compound I-281, N-(2-((2-((2-Methoxy-6-(pyrrolidin-1-yl)pyridin-4-yl)amino)-5-(trifluoromethyl)pyrimidin-4-yl)amino)phenyl)acrylamide], the GI50 in experiment [1] and in experiment [3] was under 100 nM throughout. The EC50 in experiment [2] is under 100 nM.

Take `C=CC(=O)Nc1cc(C)ccc1Nc1nc(Nc2cc(OC)ncc2C)ncc1C(F)(F)F` [Compound I-90, N-(2-((2-((2-Methoxy-5-methylpyridin-4-yl)amino)-5-(trifluoromethyl)pyrimidin-4-yl)amino)-5-methylphenyl)acrylamide]: the GI50 in experiment [1] lay in the range of 101 to 500 nM; in experiment [3], 501 to 999 nM. For the same compound, the EC50 in experiment [2] was under 100 nM.

As for `C=CC(=O)Nc1ccccc1Nc1nc(N[C@H]2CCN(S(C)(=O)=O)C2)ncc1C(F)(F)F` [Compound I-58, (S)—N-(2-((2-((1-(Methylsulfonyl)pyrrolidin-3-yl)amino)-5-(trifluoromethyl)pyrimidin-4-yl)amino)phenyl)acrylamide], the concentration for 50% growth inhibition (GI50) in experiment [1] and in experiment [3] was 101 to 500 nM each time. Also, the EC50 in experiment [2] is 101 to 500 nM.

On to `C=CC(=O)Nc1cc(C)ccc1Nc1nc(Nc2cc(OC)nc(N3CCN(CC)CC3)c2)ncc1C(F)(F)F` [Compound I-89, N-(2-((2-((2-(4-Ethylpiperazin-1-yl)-6-methoxypyridin-4-yl)amino)-5-(trifluoromethyl)pyrimidin-4-yl)amino)-5-methylphenyl)acrylamide], for which the GI50 in experiment [1] and in experiment [3] was under 100 nM throughout. Further, the EC50 in experiment [2] fell in the range of 101 to 500 nM.

`C=CC(=O)Nc1ccccc1Nc1nc(N[C@H]2CCN(C(C)=O)C2)ncc1C(F)(F)F` [Compound I-56, (S)—N-(2-((2-((1-Acetylpyrrolidin-3-yl)amino)-5-(trifluoromethyl)pyrimidin-4-yl)amino)phenyl)acrylamide]: the GI50 in experiment [1] and in experiment [3] was 101 to 500 nM each time. In experiment [2], the EC50 is 101 to 500 nM.

On to `C=CC(=O)Nc1ccccc1Nc1nc(Nc2cc(OC)nc(N3CCCCC3)c2)ncc1C(F)(F)F` [Compound I-282, N-(2-((2-((2-Methoxy-6-(piperidin-1-yl)pyridin-4-yl)amino)-5-(trifluoromethyl)pyrimidin-4-yl)amino)phenyl)acrylamide], for which the GI50 in experiment [1] and in experiment [3] was under 100 nM throughout. Further, the EC50 in experiment [2] was 101 to 500 nM.

As for `C=CC(=O)Nc1ccccc1Nc1nc(Nc2cc(C(N)=O)ccc2C)ncc1C(F)(F)F` [Compound I-68, 3-(4-(2-Acrylamidophenylamino)-5-(trifluoromethyl)pyrimidin-2-ylamino)-4-methylbenzamide], the GI50 in experiment [1] and in experiment [3] was under 100 nM in each case. Also, in experiment [2], the EC50 is under 100 nM.

`C=CS(=O)(=O)Nc1cc(C)ccc1Nc1nc(Nc2cc(OC)ncc2C)ncc1C(F)(F)F` [Compound I-333, N-(2-((2-((2-methoxy-5-methylpyridin-4-yl)amino)-5-(trifluoromethyl)pyrimidin-4-yl)amino)-5-methylphenyl)ethenesulfonamide]: the GI50 in experiment [1] and in experiment [3] was over 1000 nM each time. For the same compound, the EC50 in experiment [2] lay in the range of 101 to 500 nM.

On to `C=CC(=O)Nc1ccccc1Nc1nc(Nc2cc(OC)nc(N3CCN(C)CC3)c2)ncc1C(F)(F)F` [Compound I-324, N-(2-((2-((2-methoxy-6-(4-methylpiperazin-1-yl)pyridin-4-yl)amino)-5-(trifluoromethyl)pyrimidin-4-yl)amino)phenyl)acrylamide], for which the GI50 in experiment [1] and in experiment [3] was under 100 nM throughout.

Turning to `C=CC(=O)Nc1ccccc1Nc1nc(Nc2cc(N[C@H]3CC[C@@H](O)CC3)nc(OC)c2)ncc1C(F)(F)F` [Compound I-292], the GI50 in experiment [1] and in experiment [3] was under 100 nM each time.

`C=CC(=O)Nc1cc(C)ccc1Nc1nc(Nc2cc(OC)cc(OC)c2)ncc1C(F)(F)F` [Compound I-339, N-(2-((2-((3,5-dimethoxyphenyl)amino)-5-(trifluoromethyl)pyrimidin-4-yl)amino)-5-methylphenyl)acrylamide]: the concentration for 50% growth inhibition (GI50) in experiment [1] and in experiment [3] was under 100 nM each time.

Regarding `C=CC(=O)Nc1ccccc1Nc1nc(Nc2ccnc(F)c2)ncc1C(F)(F)F` [Compound I-287, N-(2-((2-((2-Fluoropyridin-4-yl)amino)-5-(trifluoromethyl)pyrimidin-4-yl)amino)phenyl)acrylamide], the EC50 in experiment [2] is under 100 nM.

Turning to `C=CC(=O)Nc1cc(C)ccc1Nc1nc(Nc2ccnc(F)c2)ncc1C(F)(F)F` [Compound I-288, N-(2-((2-((2-Fluoropyridin-4-yl)amino)-5-(trifluoromethyl)pyrimidin-4-yl)amino)-5-methylphenyl)acrylamide], the EC50 in experiment [2] fell in the range of 101 to 500 nM.

Source of the values: patent US9561228B2 (Celgene Avilomics Research, Inc., priority 2013, dated 2017).
